This note sets out measurements from US20240208992A1, “MACROCYCLES AS CFTR MODULATORS” (Idorsia Pharmaceuticals Ltd, priority 2021, published 2024).

The target of the test is human F508del-CFTR (Homo sapiens, UniProt P13569, DEL508-508). In words: F508del-CFTR cell surface expression (corrector activity), DiscoveRx ß-galactosidase complementation chemiluminescence assay in recombinant U2OS cell line.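 On all read-outs here: U2OS cells co-expressing ProLink-tagged F508del-CFTR and a membrane-anchored enzyme acceptor, where more surface CFTR restores β-galactosidase activity measured by chemiluminescence.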 The note with it: for EC50: EC50, F508del-CFTR cell surface expression, U2OS cells, 16h compound incubation, geomean values; for Emax: U2OS, in relation to Emax of corrector lumacaftor (=100%), arithmetic mean values.
Sequence of human F508del-CFTR (P13569 with tags, fused parts or gaps DEL508-508): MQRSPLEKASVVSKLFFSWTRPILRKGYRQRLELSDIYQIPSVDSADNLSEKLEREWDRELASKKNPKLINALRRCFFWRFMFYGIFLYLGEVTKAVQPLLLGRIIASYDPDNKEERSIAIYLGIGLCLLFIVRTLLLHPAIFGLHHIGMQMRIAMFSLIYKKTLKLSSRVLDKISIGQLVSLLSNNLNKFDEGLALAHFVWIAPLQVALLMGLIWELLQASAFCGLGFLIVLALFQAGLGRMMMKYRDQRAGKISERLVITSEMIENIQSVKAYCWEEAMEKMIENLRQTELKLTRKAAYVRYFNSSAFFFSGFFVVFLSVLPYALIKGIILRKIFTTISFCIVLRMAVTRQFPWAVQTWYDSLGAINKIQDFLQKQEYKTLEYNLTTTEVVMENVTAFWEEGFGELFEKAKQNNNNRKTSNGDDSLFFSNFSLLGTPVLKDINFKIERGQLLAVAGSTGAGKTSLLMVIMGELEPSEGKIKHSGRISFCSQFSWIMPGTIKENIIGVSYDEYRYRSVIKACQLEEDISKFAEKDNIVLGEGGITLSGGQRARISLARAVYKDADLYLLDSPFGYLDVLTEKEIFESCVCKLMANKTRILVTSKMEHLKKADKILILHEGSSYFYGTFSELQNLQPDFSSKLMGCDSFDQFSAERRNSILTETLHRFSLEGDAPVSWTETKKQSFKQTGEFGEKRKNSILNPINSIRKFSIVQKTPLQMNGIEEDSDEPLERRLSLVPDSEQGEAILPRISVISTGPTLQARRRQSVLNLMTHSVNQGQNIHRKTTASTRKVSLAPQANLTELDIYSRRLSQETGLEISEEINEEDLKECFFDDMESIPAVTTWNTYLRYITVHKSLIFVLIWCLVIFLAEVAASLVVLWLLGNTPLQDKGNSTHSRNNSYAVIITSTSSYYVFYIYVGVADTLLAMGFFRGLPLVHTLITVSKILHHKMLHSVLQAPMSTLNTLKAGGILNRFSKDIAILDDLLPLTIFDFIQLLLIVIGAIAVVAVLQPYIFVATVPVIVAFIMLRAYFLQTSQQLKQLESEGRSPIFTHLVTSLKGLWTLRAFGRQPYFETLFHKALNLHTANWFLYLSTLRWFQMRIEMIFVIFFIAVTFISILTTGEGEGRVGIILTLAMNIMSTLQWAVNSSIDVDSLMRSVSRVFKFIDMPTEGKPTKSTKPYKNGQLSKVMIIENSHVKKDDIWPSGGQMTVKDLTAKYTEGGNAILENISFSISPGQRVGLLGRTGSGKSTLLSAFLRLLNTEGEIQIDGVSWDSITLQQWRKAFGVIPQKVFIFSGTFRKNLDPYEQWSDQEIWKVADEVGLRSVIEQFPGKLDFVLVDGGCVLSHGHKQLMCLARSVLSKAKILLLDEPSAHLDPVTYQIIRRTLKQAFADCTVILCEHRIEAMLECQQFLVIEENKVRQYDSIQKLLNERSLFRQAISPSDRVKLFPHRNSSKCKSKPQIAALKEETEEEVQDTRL

Broadly, the EC50 is the midpoint of the concentration-response curve. By Emax is commonly meant the maximal effect, on the per cent scale that the assay sets. Consider `CC(C)C[C@H]1C(=O)N2CCCC[C@@H]2C(=O)N[C@H](Cc2ccccc2)COc2cnc3ccc(F)cc3c2C(=O)N[C@H](C(=O)NCCc2ccc(-n3nccn3)cc2)CC(=O)N1C` [Example 481, (9S,13S,19aR,22R)-N-(4-(2H-1,2,3-triazol-2-yl)phenethyl)-22-benzyl-5-fluoro-13-isobutyl-12-methyl-7,11,14,20-tetraoxo-7,8,9,10,11,12,13,14,17,18,19,19a,20,21,22,23-hexadecahydro-16H-pyrido[2′,1′:6,7][1]oxa[4,7,10,14]tetraazacycloheptadecino[17,16-c]quinoline-9-carboxamide], for which the EC50 turned out to be 0.448 µM and the Emax was determined as 225%.

As to `Cc1nc2ccc3c(c2o1)C(=O)N[C@H](C(=O)NCCc1c(F)cccc1F)CC(=O)N(C)[C@@H](CC(C)C)C(=O)N1CCCC[C@@H]1C(=O)N[C@H](Cc1ccccc1)CO3` [Example 482, (8S,12S,18aR,21R)-21-benzyl-N-(2,6-difluorophenethyl)-12-isobutyl-4,11-dimethyl-6,10,13,19-tetraoxo-6,7,8,9,10,11,12,13,16,17,18,18a,19,20,21,22-hexadecahydro-15H-oxazolo[4′,5′:5,6]benzo[1,2-p]pyrido[2,1-f][1]oxa[4,7,10,14]tetraazacycloheptadecine-8-carboxamide], the EC50 came out at 0.414 µM and the Emax was determined as 247%.

In the case of `COc1nccc2c1C(=O)N[C@H](C(=O)NCCc1noc(C3CC3)n1)CC(=O)N(C)[C@@H](CC(C)C)C(=O)N1CCCC[C@@H]1C(=O)N[C@H](Cc1ccccc1)CO2` [Example 483, (7S,11S,17aR,20R)-20-benzyl-N-(2-(5-cyclopropyl-1,2,4-oxadiazol-3-yl)ethyl)-11-isobutyl-4-methoxy-10-methyl-5,9,12,18-tetraoxo-5,6,7,8,9,10,11,12,15,16,17,17a,18,19,20,21-hexadecahydro-14H-dipyrido[2,1-f:3′,4′-p][1]oxa[4,7,10,14]tetraazacycloheptadecine-7-carboxamide], the EC50 was found to be 0.517 µM and the Emax came out at 311%.

On to `CC(C)C[C@H]1C(=O)N2CCCC[C@@H]2C(=O)N[C@H](Cc2ccccc2)COc2nc3ccccn3c2C(=O)N[C@H](C(=O)NCCc2c(F)cccc2F)CC(=O)N1C` [Example 484, (7S,11S,22R,24aR)-22-benzyl-N-(2,6-difluorophenethyl)-7-isobutyl-8-methyl-6,9,13,24-tetraoxo-1,3,4,6,7,8,9,10,11,12,13,21,22,23,24,24a-hexadecahydro-2H-pyrido[2,1-f]pyrido[2′,1′:2,3]imidazo[4,5-p][1]oxa[4,7,10,14]tetraazacycloheptadecine-11-carboxamide], for which the EC50 was determined as 0.251 µM and the Emax was found to be 117%.

Turning to `CC(C)C[C@H]1C(=O)N2CCCC[C@@H]2C(=O)N[C@H](Cc2ccccc2)COc2ccc3ncn(C)c3c2C(=O)N[C@H](C(=O)NCCc2c(F)cccc2F)CC(=O)N1C` [Example 485, (8S,12S,18aR,21R)-21-benzyl-N-(2,6-difluorophenethyl)-12-isobutyl-5,11-dimethyl-6,10,13,19-tetraoxo-6,7,8,9,10,11,12,13,16,17,18,18a,19,20,21,22-hexadecahydro-5H,15H-imidazo[4′,5′:5,6]benzo[1,2-p]pyrido[2,1-f][1]oxa[4,7,10,14]tetraazacycloheptadecine-8-carboxamide], the EC50 came out at 0.238 µM and the Emax is 204%.

On to `CC(C)C[C@H]1C(=O)N2CCCC[C@@H]2C(=O)N[C@H](Cc2ccccc2)COc2ccc3ncccc3c2C(=O)N[C@H](C(=O)NCCc2noc(C3CC3)n2)CC(=O)N1C` [Example 486, (9S,13S,19aR,22R)-22-benzyl-N-(2-(5-cyclopropyl-1,2,4-oxadiazol-3-yl)ethyl)-13-isobutyl-12-methyl-7,11,14,20-tetraoxo-7,8,9,10,11,12,13,14,17,18,19,19a,20,21,22,23-hexadecahydro-16H-pyrido[2′,11:6,7][1]oxa[4,7,10,14]tetraazacycloheptadecino[16,17-f]quinoline-9-carboxamide], for which the EC50 came out at 0.201 µM and the Emax came to 303%.

As for `Cc1cc(CCNC(=O)[C@@H]2CC(=O)N(C)[C@@H](CC(C)C)C(=O)N3CCCC[C@@H]3C(=O)N[C@@H](Cc3ccccc3)COc3cnc4ccccc4c3C(=O)N2)on1` [Example 487, (9S,13S,19aR,22S)-22-benzyl-13-isobutyl-12-methyl-N-(2-(3-methylisoxazol-5-yl)ethyl)-7,11,14,20-tetraoxo-7,8,9,10,11,12,13,14,17,18,19,19a,20,21,22,23-hexadecahydro-16H-pyrido[2′,1′:6,7][1]oxa[4,7,10,14]tetraazacycloheptadecino[17,16-c]quinoline-9-carboxamide], the EC50 is 1.34 µM and the Emax is 147%.

As to `COc1cccc(CCNC(=O)[C@@H]2CC(=O)N(C)[C@@H](CC(C)C)C(=O)N(C)C3(CC3)C(=O)N[C@H](Cc3ccccc3)COc3ccc(OC)nc3C(=O)N2)c1` [Example 488, (3′R,9′S,13′S)-3′-benzyl-9′-isobutyl-17′-methoxy-N-(3-methoxyphenethyl)-7′,10′-dimethyl-5′,8′,11′,15′-tetraoxo-2′,3′,4′,5′,8′,9′,10′,11′,12′,13′,14′,15′-dodecahydro-7′H-spiro[cyclopropane-1,6′-pyrido[2,3-p][1]oxa[4,7,10,14]tetraazacycloheptadecine]-13′-carboxamide], the EC50 is 0.91 µM and the Emax stood at 270%.

As to `CC(C)C[C@H]1C(=O)N2CCOC[C@@H]2C(=O)N[C@H](Cc2ccccc2)COc2cnc3ccc(F)cc3c2C(=O)N[C@H](C(=O)NCCc2noc(C3CC3)n2)CC(=O)N1C` [Example 489, (9S,13S,19aR,22R)-22-benzyl-N-(2-(5-cyclopropyl-1,2,4-oxadiazol-3-yl)ethyl)-5-fluoro-13-isobutyl-12-methyl-7,11,14,20-tetraoxo-7,8,9,10,11,12,13,14,16,17,19,19a,20,21,22,23-hexadecahydro-[1,4]oxazino[3′,4′:6,7][1]oxa[4,7,10,14]tetraazacycloheptadecino[17,16-c]quinoline-9-carboxamide], the EC50 worked out at 0.625 µM and the Emax was found to be 273%.

With `CC(C)C[C@H]1C(=O)N2CCCC[C@@H]2C(=O)N[C@H](Cc2ccccc2)COc2ccc3c(cnn3C)c2C(=O)N[C@H](C(=O)NCCc2c(F)cccc2F)CC(=O)N1C` [Example 490, (8S,12S,18aR,21R)-21-benzyl-N-(2,6-difluorophenethyl)-12-isobutyl-3,11-dimethyl-6,10,13,19-tetraoxo-6,7,8,9,10,11,12,13,16,17,18,18a,19,20,21,22-hexadecahydro-3H,15H-pyrido[2′,1′:6,7][1]oxa[4,7,10,14]tetraazacycloheptadecino[16,17-e]indazole-8-carboxamide], the EC50 was 0.222 µM and the Emax came out at 181%.

Turning to `CC(C)C[C@H]1C(=O)N2CCCC[C@@H]2C(=O)N[C@H](Cc2ccccc2)COc2ccc3c(c2C(=O)N[C@H](C(=O)NCCc2c(F)cccc2F)CC(=O)N1C)OCC3` [Example 491, (8S,12S,18aR,21R)-21-benzyl-N-(2,6-difluorophenethyl)-12-isobutyl-11-methyl-6,10,13,19-tetraoxo-3,4,6,7,8,9,10,11,12,13,16,17,18,18a,19,20,21,22-octadecahydro-15H-benzofuro[7,6-p]pyrido[2,1-f][1]oxa[4,7,10,14]tetraazacycloheptadecine-8-carboxamide], the EC50 stood at 0.209 µM and the Emax is 178%.

For `CO[C@H]1C[C@]2(C1)C(=O)N[C@H](Cc1ccccc1)COc1ccc3ccccc3c1C(=O)N[C@H](C(=O)NCCc1ccc(-n3nccn3)cc1)CC(=O)N(C)[C@@H](CC(C)C)C(=O)N2C` [Example 492, (1r,3S,3′S,7′S,13′R)-N-(4-(2H-1,2,3-triazol-2-yl)phenethyl)-13′-benzyl-7′-isobutyl-3-methoxy-6′,9′-dimethyl-1′,5′,8′,11′-tetraoxo-2′,3′,4′,5′,6′,7′,8′,9′,11′,12′,13′,14′-dodecahydro-1′H-spiro[cyclobutane-1,10′-naphtho[1,2-p][1]oxa[4,7,10,14]tetraazacycloheptadecine]-3′-carboxamide], the EC50 was 0.305 µM and the Emax worked out at 168%.

For `CO[C@H]1C[C@]2(C1)C(=O)N[C@H](Cc1ccccc1)COc1cnc3ccccc3c1C(=O)N[C@H](C(=O)NCCc1ccc(-n3nccn3)cc1)CC(=O)N(C)[C@@H](CC(C)C)C(=O)N2C` [Example 493, (1r,3S,3′S,7′S,13′R)-N-(4-(2H-1,2,3-triazol-2-yl)phenethyl)-13′-benzyl-7′-isobutyl-3-methoxy-6′,9′-dimethyl-1′,5′,8′,11′-tetraoxo-2′,3′,4′,5′,6′,7′,8′,9′,11′,12′,13′,14′-dodecahydro-1′H-spiro[cyclobutane-1,10′-[1]oxa[4,7,10,14]tetraazacycloheptadecino[17,16-c]quinoline]-3′-carboxamide], the 50% effective concentration (EC50) was 0.687 µM and the Emax came out at 253%.

Consider `COc1cccc(CCNC(=O)[C@@H]2CC(=O)N(C)[C@@H](CC(C)C)C(=O)N(C)C3(CC3)C(=O)N[C@H](Cc3ccccc3)COc3ccc4cnccc4c3C(=O)N2)c1` [Example 494, (3′S,7′S,13′R)-13′-benzyl-7′-isobutyl-N-(3-methoxyphenethyl)-6′,9′-dimethyl-1′,5′,8′,11′-tetraoxo-2′,3′,4′,5′,6′,7′,8′,9′,11′,12′,13′,14′-dodecahydro-1′H-spiro[cyclopropane-1,10′-[1]oxa[4,7,10,14]tetraazacycloheptadecino[16,17-f]isoquinoline]-3′-carboxamide], for which the EC50 worked out at 0.26 µM and the Emax is 295%.
